Results taken from the NIST ThermoML archive (doi:10.1016/j.tca.2014.02.019).

Assay: xn = mol fraction of the nth substance listed
Details: 101 kPa, Liquid; for viscosity: Falling or rolling sphere viscometry; for mass density: Vibrating tube method

CCOS(=O)(=O)[O-].CC[N+]1(C)CCCC1 [1-ethyl-1-methylpyrrolidinium ethyl sulfate] + O
Details | mass density [kg/m3] | viscosity [mPa·s]
313.15 K, x1 = 0.0348 | 1046.88 | 1.414
313.15 K, x1 = 0.0933 | 1095.76 | 3.185
313.15 K, x1 = 0.1312 | 1114.51 | 5.031
313.15 K, x1 = 0.2458 | 1144.25 | 10.31
313.15 K, x1 = 0.3495 | 1155.83 | 15.65
313.15 K, x1 = 0.5281 | 1166.58 | 27.98
313.15 K, x1 = 0.693 | 1171.73 | 42.48
313.15 K, x1 = 0.7794 | 1172.62 | 51.33
313.15 K, x1 = 0.895 | 1174.19 | 64.67
313.15 K, x1 = 1 | 1176.31 | 78.32
318.15 K, x1 = 0.0348 | 1044.06 | 1.27
318.15 K, x1 = 0.0933 | 1092.47 | 2.8
318.15 K, x1 = 0.1312 | 1111.07 | 4.391
318.15 K, x1 = 0.2458 | 1140.77 | 8.889
318.15 K, x1 = 0.3495 | 1152.31 | 13.37
318.15 K, x1 = 0.5281 | 1163.34 | 23.71
318.15 K, x1 = 0.693 | 1168.5 | 35.67
318.15 K, x1 = 0.7794 | 1169.22 | 42.9
318.15 K, x1 = 0.895 | 1171.07 | 53.73
318.15 K, x1 = 1 | 1173.63 | 64.72
323.15 K, x1 = 0.0348 | 1041.44 | 1.149
323.15 K, x1 = 0.0933 | 1089.13 | 2.479
323.15 K, x1 = 0.1312 | 1107.59 | 3.87
323.15 K, x1 = 0.2458 | 1137.17 | 7.729
323.15 K, x1 = 0.3495 | 1149.28 | 11.6
323.15 K, x1 = 0.5281 | 1160.06 | 20.29
323.15 K, x1 = 0.693 | 1165.16 | 30.18
323.15 K, x1 = 0.7794 | 1165.65 | 36.07
323.15 K, x1 = 0.895 | 1167.97 | 44.78
323.15 K, x1 = 1 | 1170.95 | 53.51
328.15 K, x1 = 0.0348 | 1038.48 | 1.046
328.15 K, x1 = 0.0933 | 1085.76 | 2.211
328.15 K, x1 = 0.1312 | 1103.99 | 3.392
328.15 K, x1 = 0.2458 | 1133.19 | 6.803
328.15 K, x1 = 0.3495 | 1145.36 | 10.13
328.15 K, x1 = 0.5281 | 1156.72 | 17.54
328.15 K, x1 = 0.693 | 1161.95 | 25.84
328.15 K, x1 = 0.7794 | 1162.9 | 30.7
328.15 K, x1 = 0.895 | 1164.87 | 37.8
328.15 K, x1 = 1 | 1168.27 | 44.82
333.15 K, x1 = 0.0348 | 1035.45 | 0.992
333.15 K, x1 = 0.0933 | 1082.31 | 1.985
333.15 K, x1 = 0.1312 | 1100.26 | 2.943
333.15 K, x1 = 0.2458 | 1129.65 | 6.014
333.15 K, x1 = 0.3495 | 1142.23 | 8.896
333.15 K, x1 = 0.5281 | 1153.16 | 15.32
333.15 K, x1 = 0.693 | 1158.04 | 22.4
333.15 K, x1 = 0.7794 | 1160.04 | 26.46
333.15 K, x1 = 0.895 | 1162.1 | 32.29
333.15 K, x1 = 1 | 1165.59 | 37.95
338.15 K, x1 = 0.0348 | 1033.08 | 0.983
338.15 K, x1 = 0.0933 | 1079.2 | 1.8
338.15 K, x1 = 0.1312 | 1097.07 | 2.454
338.15 K, x1 = 0.2458 | 1125.34 | 5.34
338.15 K, x1 = 0.3495 | 1138.14 | 7.739
338.15 K, x1 = 0.5281 | 1150.02 | 13.29
338.15 K, x1 = 0.693 | 1155.15 | 19.06
338.15 K, x1 = 0.7794 | 1156.48 | 22.65
338.15 K, x1 = 0.895 | 1158.93 | 27.65
338.15 K, x1 = 1 | 1162.91 | 32.87
343.15 K, x1 = 0.0348 | 1030.38 | 0.976
343.15 K, x1 = 0.0933 | 1075.92 | 1.61
343.15 K, x1 = 0.1312 | 1093.61 | 1.923
343.15 K, x1 = 0.2458 | 1122.44 | 4.202
343.15 K, x1 = 0.3495 | 1135.34 | 6.568
343.15 K, x1 = 0.5281 | 1146.94 | 11.31
343.15 K, x1 = 0.693 | 1152.01 | 16.47
343.15 K, x1 = 0.7794 | 1153.23 | 19.55
343.15 K, x1 = 0.895 | 1155.85 | 24.69
343.15 K, x1 = 1 | 1160.23 | 29.23
